In brackets after ≈: the same amount, converted by molar mass.
Legend:
[1] = target: T1, Disintegrin and metalloproteinase domain-containing protein 17 (Homo sapiens, UniProt P78536); test: Inhibition of TACE (unknown origin) by cell based assay; conditions: read-out: pIC50 (converted)
[2] = target: T1, Disintegrin and metalloproteinase domain-containing protein 17; test: Inhibition of TACE (unknown origin)
[3] = Stability in human liver microsomes assessed as parent compound remaining at 1 uM after 15 mins by LC-MS/MS analysis; type: ADME, microsome; conditions: read-out: Stability
[4] = target: T1, Disintegrin and metalloproteinase domain-containing protein 17; test: Inhibition of recombinant human TACE catalytic domain using Mca-Pro-Leu-Ala-Gln-Ala-Val-Dpa-Arg-Ser-Ser-Ser-Arg-NH2 as substrate after 2 hrs by fluorescence assay
[5] = target: T1, Disintegrin and metalloproteinase domain-containing protein 17; test: Inhibition of TACE in NHEK assessed as reduction in LPS/TPA-stimulated TNFalpha production preincubated for 1 hr followed by LPS/TPA stimulation for 24 hrs by HTRF assay
[6] = target: T1, Disintegrin and metalloproteinase domain-containing protein 17; test: Inhibition of TACE in human PBMC assessed as inhibition of LPS-stimulated TNFalpha production
[7] = target: Disintegrin and metalloproteinase domain-containing protein 17 (Sus scrofa, UniProt O77636); test: Inhibition of porcine spleen TACE using Mca-Pro-LeuAla-Gln-Ala-Val-Dpa-Arg-Ser-Ser-Ser-[…]-NH2 as substrate by fluorescence assay
[8] = Aqueous solubility of the compound; type: physicochemical

Disintegrin and metalloproteinase domain-containing protein 17 (Sus scrofa, UniProt O77636), sequence (O77636 whole entry, the tested form may be a part): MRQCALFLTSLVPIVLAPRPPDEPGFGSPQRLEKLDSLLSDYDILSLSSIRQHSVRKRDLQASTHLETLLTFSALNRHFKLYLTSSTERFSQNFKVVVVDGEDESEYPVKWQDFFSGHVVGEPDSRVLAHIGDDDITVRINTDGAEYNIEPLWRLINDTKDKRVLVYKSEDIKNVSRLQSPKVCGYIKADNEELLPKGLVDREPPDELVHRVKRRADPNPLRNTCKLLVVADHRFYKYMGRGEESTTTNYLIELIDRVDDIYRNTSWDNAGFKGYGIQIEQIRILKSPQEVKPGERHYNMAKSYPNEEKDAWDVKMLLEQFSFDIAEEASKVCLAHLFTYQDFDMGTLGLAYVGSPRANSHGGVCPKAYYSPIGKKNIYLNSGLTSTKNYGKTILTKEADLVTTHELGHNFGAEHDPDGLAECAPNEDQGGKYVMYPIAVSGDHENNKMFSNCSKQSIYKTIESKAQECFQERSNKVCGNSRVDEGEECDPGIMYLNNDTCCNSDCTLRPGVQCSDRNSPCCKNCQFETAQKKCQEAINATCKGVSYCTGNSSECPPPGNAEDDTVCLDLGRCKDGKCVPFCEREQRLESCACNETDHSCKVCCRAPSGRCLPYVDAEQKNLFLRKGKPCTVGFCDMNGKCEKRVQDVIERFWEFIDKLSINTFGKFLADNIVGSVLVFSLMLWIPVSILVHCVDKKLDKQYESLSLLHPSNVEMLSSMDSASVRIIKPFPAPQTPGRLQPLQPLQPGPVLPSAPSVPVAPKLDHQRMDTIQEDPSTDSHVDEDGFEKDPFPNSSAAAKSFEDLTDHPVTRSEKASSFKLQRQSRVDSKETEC
T1 sequence (P78536 whole entry, the tested form may be a part): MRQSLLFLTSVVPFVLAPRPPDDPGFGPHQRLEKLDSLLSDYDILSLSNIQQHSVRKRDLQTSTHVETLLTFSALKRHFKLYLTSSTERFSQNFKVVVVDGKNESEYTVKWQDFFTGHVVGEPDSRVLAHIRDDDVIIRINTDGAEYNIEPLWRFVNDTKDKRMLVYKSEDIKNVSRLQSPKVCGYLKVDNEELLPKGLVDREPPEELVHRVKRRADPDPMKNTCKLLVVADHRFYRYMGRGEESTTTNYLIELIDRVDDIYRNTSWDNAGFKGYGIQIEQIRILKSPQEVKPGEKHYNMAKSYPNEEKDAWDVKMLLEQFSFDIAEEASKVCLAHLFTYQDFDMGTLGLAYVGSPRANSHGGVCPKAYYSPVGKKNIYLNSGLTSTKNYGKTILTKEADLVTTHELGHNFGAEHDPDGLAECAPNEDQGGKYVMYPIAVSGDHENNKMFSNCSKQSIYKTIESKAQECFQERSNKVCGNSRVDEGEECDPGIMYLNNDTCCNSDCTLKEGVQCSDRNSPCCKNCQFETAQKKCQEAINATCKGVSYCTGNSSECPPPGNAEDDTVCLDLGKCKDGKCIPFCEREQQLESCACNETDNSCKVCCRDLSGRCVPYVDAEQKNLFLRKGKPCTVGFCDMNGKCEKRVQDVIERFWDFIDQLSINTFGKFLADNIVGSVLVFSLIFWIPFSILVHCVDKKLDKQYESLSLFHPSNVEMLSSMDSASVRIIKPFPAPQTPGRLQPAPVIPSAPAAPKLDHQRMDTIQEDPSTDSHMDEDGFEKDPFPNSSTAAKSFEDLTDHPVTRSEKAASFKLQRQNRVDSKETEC

Row | SMILES | IC50 [4] [nM] | IC50 [6] [nM] | IC50 [7] [nM] | further results
1 | COCCOc1cc(CCC[C@H]2C(=O)N[C@H](C(=O)c3ccccc3)Cc3ccc(cc3)OCCCC[C@@H]2C(=O)NO)cc(OC)c1 | – | – | – | IC50 [1]: 15800 nM; IC50 [2]: 79.4 nM
2 | CNC(=O)[C@@H]1Cc2ccc(cc2)OCCCC[C@H](C(=O)NO)[C@@H](CCCc2ccc(Cl)cc2)C(=O)N1 | – | – | – | IC50 [1]: 398 nM; IC50 [2]: 3.16 nM
3 | CNC(=O)[C@@H]1Cc2ccc(cc2)OCCCC[C@H](C(=O)NO)[C@@H](CCCc2cc(C(F)(F)F)cc(C(F)(F)F)c2)C(=O)N1 | – | – | – | IC50 [1]: 316 nM; IC50 [2]: 31.6 nM
4 | C[C@H](C(=O)NO)N1CCNc2cc(OCc3cc(Cl)cc(Cl)c3)ccc2S1 | – | 940 | 153 | –
5 | CCOc1cc(COc2ccc3c(c2)NCCN([C@H](CCC(=O)OC)C(=O)NO)S3)cc(OCC)c1 | – | 6200 | 242 | –
6 | Cc1cc(COc2ccc(S(=O)(=O)N3CCN(S(C)(=O)=O)C(C(=O)NO)C3)cc2)c2c(n1)CCCC2 (centres undefined) | 29 | – | – | remaining at […], 1 µM [3]: 88%
7 | C[C@H](C(=O)NO)N1CCNc2cc(Oc3ccc(C(F)(F)F)cc3)ccc2S1 | – | 840 | 758 | –
8 | Cc1cc(COc2ccc(S(=O)(=O)N3CCN(C(=O)C4CC4)C(C(=O)NO)C3)cc2)c2c(n1)CCCC2 (centres undefined) | 13 | – | – | remaining at […], 1 µM [3]: 88%; IC50 [5]: 3100 nM; solubility [8]: 58 µM (≈ 30.7 µg/mL)
9 | CC(C)C[C@H](C(=O)NO)N1CCNc2cc(OCc3ccccc3)ccc2S1 | – | 350 | 177 | –
10 | Cc1cc(COc2ccc(S(=O)(=O)N3CCN(C)C(C(=O)NO)C3)cc2)c2c(n1)CCCC2 (centres undefined) | 160 | – | – | remaining at […], 1 µM [3]: 80%
11 | Cc1cc(COc2ccc(S(=O)(=O)N3CCN(C(=O)CC(C)C)C(C(=O)NO)C3)cc2)c2c(n1)CCCC2 (centres undefined) | 23 | – | – | remaining at […], 1 µM [3]: 64%
12 | COc1cc(COc2ccc3c(c2)NCCN([C@H](CCCCNS(C)(=O)=O)C(=O)NO)S3)cc(OC)c1 | – | 1900 | 5 | –
13 | COc1cc(COc2ccc3c(c2)NCCN([C@H](CC(C)C)C(=O)NO)S3)cc(OC)c1 | – | 5400 | 17 | –
14 | Cc1cc(COc2ccc(S(=O)(=O)N3CCN(C(=O)c4ccccc4)C(C(=O)NO)C3)cc2)c2c(n1)CCCC2 (centres undefined) | 16 | – | – | remaining at […], 1 µM [3]: 85%

Second part, led by results:

Row | IC50 [4] [nM] | IC50 [6] [nM] | IC50 [7] [nM] | SMILES | further results
15 | 150 | – | – | Cc1cc(COc2ccc(S(=O)(=O)N3CCN(C4CCC4)C(C(=O)NO)C3)cc2)c2c(n1)CCCC2 (centres undefined) | remaining at […], 1 µM [3]: 54%; IC50 [5]: > 10000 nM
16 | – | 1200 | 11 | C[C@H](C(=O)NO)N1CCNc2cc(Oc3ccc([N+](=O)[O-])cc3)ccc2S1 | –
17 | – | 9500 | 89 | CC(C)C[C@H](C(=O)NO)N1CCNc2cc(O)ccc2S1 | –
18 | 6 | – | – | Cc1cc(COc2ccc(S(=O)(=O)NC[C@@H](C(=O)NO)N3CCCCC3)cc2)c2c(n1)CCCC2 | IC50 [5]: 60 nM
19 | 60 | – | – | Cc1cc(COc2ccc(S(=O)(=O)N3CCCC(C(=O)NO)C3)cc2)c2ccccc2n1 (centres undefined) | IC50 [5]: > 10000 nM; solubility [8]: < 1 µM
20 | 35 | – | – | Cc1cc(COc2ccc(S(=O)(=O)N3CCC(C)(C(=O)NO)C3)cc2)c2ccccc2n1 (centres undefined) | IC50 [5]: > 10000 nM; solubility [8]: 41 µM (≈ 18.7 µg/mL)
21 | 26 | – | – | Cc1cc(COc2ccc(S(=O)(=O)N3CCN(C(=O)C(C)C)C(C(=O)NO)C3)cc2)c2c(n1)CCCC2 (centres undefined) | remaining at […], 1 µM [3]: 91%
22 | – | 1100 | 13 | CCOc1cc(COc2ccc3c(c2)NCCN([C@H](CCCC(=O)OC)C(=O)NO)S3)cc(OCC)c1 | –
23 | – | 2900 | 544 | Cc1cc(COc2ccc3c(c2)NCCN([C@H](C)C(=O)NO)S3)cc(C)n1 | –
24 | 210 | – | – | Cc1cc(COc2ccc(S(=O)(=O)N3CCC(C(=O)NO)C3)cc2)c2c(n1)CCCC2 (centres undefined) | IC50 [5]: > 10000 nM
25 | 350 | – | – | CC(=O)N1C[C@@H](S(=O)(=O)c2ccc(OCc3cc(C)nc4c3CCCC4)cc2)C[C@H]1C(=O)NO | IC50 [5]: > 10000 nM
26 | – | 900 | 10 | COC(=O)CCC[C@H](C(=O)NO)N1CCNc2cc(OCc3cc(OC)cc(OC)c3)ccc2S1 | –
27 | – | 24500 | 290 | Cc1nc(COc2ccc3c(c2)NCCN([C@@H](C(=O)NO)C(C)C)S3)sc1C | –

Reference: ChEMBL document CHEMBL4007472, “Identification of novel TACE inhibitors compatible with topical application” (Bioorg Med Chem Lett, 2017)
